# According to patent US5698411A, “Method for determining activity of enzymes in metabolically active whole cells” (priority 1995, dated 1997):
# Assays:
# lymphocytes [1] = test: enzyme activity with fluorogenic substrate, normal lymphocytes (Table 3A); type: cell-based, human
# lymphocytes [2] = test: aberrant enzyme activities in febrile children, lymphocytes (Table 7); type: cell-based, human
# monocytes [3] = test: aberrant enzyme activities in febrile children, monocytes (Table 7); type: cell-based, human
# granulocytes [4] = test: enzyme activity with fluorogenic substrate, normal granulocytes (Table 3A); type: cell-based, human
# granulocytes [5] = test: aberrant enzyme activities in febrile children, granulocytes (Table 7); type: cell-based, human
# monocytes [6] = test: enzyme activity with fluorogenic substrate, normal monocytes (Table 3A); type: cell-based, human
# erythrocytes = test: enzyme activity with fluorogenic substrate, normal erythrocytes (Table 3B); type: cell-based, human
# [7] = tested on: substituted rhodamine 110 substrates; test: modulator effect on substituted rhodamine 110 substrates; type: biochemical
# Excerpt: Modulators are components used to […] the sensitivity of the enzyme for the leaving group. The modulators speed up or slow down the activity of an enzyme by changing the active site. […] Preferred modulators for particular enzymes are included in Table 1.
SMILES,NORMAL LEUKOCYTE ENZYME ACTIVITY LYMPHS Mean (lymphocytes [1]),"aberrant enzyme activity, LYMPHS (lymphocytes [2]; P88 Enteritis)","aberrant enzyme activity, LYMPHS (lymphocytes [2]; P97 Pyelonephritis)","aberrant enzyme activity, LYMPHS (lymphocytes [2]; P99 Viral Syndrome)","aberrant enzyme activity, LYMPHS (lymphocytes [2]; P102 UTI)","aberrant enzyme activity, MONOS (monocytes [3]; P88 Enteritis)","aberrant enzyme activity, MONOS (monocytes [3]; P99 Viral Syndrome)","aberrant enzyme activity, MONOS (monocytes [3]; P102 UTI)",NORMAL LEUKOCYTE ENZYME ACTIVITY GRANS Mean (granulocytes [4]),"aberrant enzyme activity, GRANS (granulocytes [5]; P88 Enteritis)","aberrant enzyme activity, GRANS (granulocytes [5]; P99 Viral Syndrome)","aberrant enzyme activity, GRANS (granulocytes [5]; P102 UTI)",NORMAL LEUKOCYTE ENZYME ACTIVITY MONOS Mean (monocytes [6]),NORMAL E[…] ACTIVITY MEAN (erythrocytes),further results
"CC(=O)Oc1cc2c(cc1Cl)C(c1ccccc1C(=O)O)c1cc(Cl)c(OC(C)=O)cc1O2 [DCFH-DA MES, reference compound]",4.11,.smallcircle.,.smallcircle.,.smallcircle.,.smallcircle.,.smallcircle.,.smallcircle.,.smallcircle.,7.49,.smallcircle.,.smallcircle.,.smallcircle.,12.28,0.286,"aberrant enzyme activity, LYMPHS (lymphocytes [2]; P89 Viral Stomatitis): + (>0.25 Increase over normal range); aberrant enzyme activity, LYMPHS (lymphocytes [2]; P92 Adenitis): + (>0.25 Increase over normal range); aberrant enzyme activity, LYMPHS (lymphocytes [2]; P95 Viral Syndrome): + (>0.25 Increase over normal range); aberrant enzyme activity, LYMPHS (lymphocytes [2]; P96 Viral Syndrome): + (>0.25 Increase over normal range); aberrant enzyme activity, LYMPHS (lymphocytes [2]; P101 Fever -- Unknown Origin): + (>0.25 Increase over normal range); aberrant enzyme activity, LYMPHS (lymphocytes [2]; P103 Viral Syndrome): + (>0.25 Increase over normal range); aberrant enzyme activity, MONOS (monocytes [3]; P89 Viral Stomatitis): + (>0.25 Increase over normal range); aberrant enzyme activity, MONOS (monocytes [3]; P92 Adenitis): + (>0.25 Increase over normal range); aberrant enzyme activity, MONOS (monocytes [3]; P95 Viral Syndrome): + (>0.25 Increase over normal range); aberrant enzyme activity, MONOS (monocytes [3]; P96 Viral Syndrome): + (>0.25 Increase over normal range); aberrant enzyme activity, MONOS (monocytes [3]; P97 Pyelonephritis): + (>0.25 Increase over normal range); aberrant enzyme activity, MONOS (monocytes [3]; P101 Fever -- Unknown Origin): + (>0.25 Increase over normal range); aberrant enzyme activity, MONOS (monocytes [3]; P103 Viral Syndrome): + (>0.25 Increase over normal range); aberrant enzyme activity, GRANS (granulocytes [5]; P89 Viral Stomatitis): + (>0.25 Increase over normal range); aberrant enzyme activity, GRANS (granulocytes [5]; P92 Adenitis): + (>0.25 Increase over normal range); aberrant enzyme activity, GRANS (granulocytes [5]; P95 Viral Syndrome): + (>0.25 Increase over normal range); aberrant enzyme activity, GRANS (granulocytes [5]; P96 Viral Syndrome): + (>0.25 Increase over normal range); aberrant enzyme activity, GRANS (granulocytes [5]; P97 Pyelonephritis): + (>0.25 Increase over normal range); aberrant enzyme activity, GRANS (granulocytes [5]; P101 Fever -- Unknown Origin): + (>0.25 Increase over normal range); aberrant enzyme activity, GRANS (granulocytes [5]; P103 Viral Syndrome): + (>0.25 Increase over normal range)"
O=C1OC2(c3ccc(OC4O[C@H](CO)[C@@H](O)[C@H](O)[C@H]4O)cc3Oc3cc(OC4O[C@H](CO)[C@@H](O)[C@H](O)[C@H]4O)ccc32)c2ccccc21 (stereo partly drawn) [DIGLUC (FL)],0.23,,,,,,,,0.45,,,,,0.110,
"O[C@H](CS)[C@H](O)CS [Dithiothreitol (DTT), Dithiothreitol]",,,,,,,,,,,,,,,modulator effect [7]: effective modulator
"CC(=O)Oc1ccc2c(c1)Oc1cc(OC(C)=O)ccc1C21OC(=O)c2ccccc21 [FDA, fluorescein diacetate, reference compound]",13.38,.smallcircle.,.smallcircle.,.smallcircle.,.smallcircle.,.smallcircle.,.smallcircle.,.smallcircle.,,.smallcircle.,.smallcircle.,.smallcircle.,66.25,0.126,
